From ChEMBL document CHEMBL2311250 (Bioorg Med Chem Lett, 2013)
pIC50: −log10 of the molar value. Values after ≈ are worked out from the molar mass of the structure shown.

Experiments:
[1] = Half life in human liver microsomes; assay type: ADME, Microsome
[2] = molecular target: T1, Tyrosine-protein kinase receptor TYRO3 (Homo sapiens, UniProt Q06418); assay: Inhibition of Sky (unknown origin) by ELISA kinase assay in presence of 60 uM ATP
T1 sequence (Q06418 whole entry): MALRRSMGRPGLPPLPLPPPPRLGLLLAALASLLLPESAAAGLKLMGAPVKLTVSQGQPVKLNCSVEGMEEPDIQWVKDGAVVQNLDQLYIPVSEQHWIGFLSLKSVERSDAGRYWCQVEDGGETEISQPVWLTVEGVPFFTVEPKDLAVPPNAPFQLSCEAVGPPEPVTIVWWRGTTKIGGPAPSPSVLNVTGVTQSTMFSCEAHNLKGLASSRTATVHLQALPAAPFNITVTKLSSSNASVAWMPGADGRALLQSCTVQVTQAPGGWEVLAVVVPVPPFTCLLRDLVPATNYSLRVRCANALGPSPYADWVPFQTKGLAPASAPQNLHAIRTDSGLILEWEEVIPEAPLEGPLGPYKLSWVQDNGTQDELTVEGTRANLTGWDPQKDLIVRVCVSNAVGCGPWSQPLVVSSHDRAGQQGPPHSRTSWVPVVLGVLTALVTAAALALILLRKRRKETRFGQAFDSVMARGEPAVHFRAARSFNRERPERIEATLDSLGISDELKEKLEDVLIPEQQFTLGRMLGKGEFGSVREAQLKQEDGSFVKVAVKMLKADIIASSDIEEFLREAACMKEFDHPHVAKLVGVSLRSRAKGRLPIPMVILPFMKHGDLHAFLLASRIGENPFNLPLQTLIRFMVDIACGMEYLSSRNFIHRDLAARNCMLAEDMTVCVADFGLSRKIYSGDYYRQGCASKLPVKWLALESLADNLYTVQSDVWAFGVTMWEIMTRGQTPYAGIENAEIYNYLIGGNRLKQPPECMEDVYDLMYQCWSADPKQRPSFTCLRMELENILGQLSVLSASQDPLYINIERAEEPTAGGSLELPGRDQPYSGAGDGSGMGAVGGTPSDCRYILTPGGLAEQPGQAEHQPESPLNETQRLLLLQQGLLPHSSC

[3] = Aqueous solubility of the compound at ph 6.5; assay type: physicochemical
[4] = Permeability of the compound by PAMPA; assay type: ADME; settings: read-out: permeability
[5] = molecular target: hERG (KCNH2) (Homo sapiens, UniProt Q12809); assay: Displacement of [3H]dofetilide from human ERG at 10 uM; settings: probe [3H]dofetilide
Chain of hERG (KCNH2) (Q12809 whole entry): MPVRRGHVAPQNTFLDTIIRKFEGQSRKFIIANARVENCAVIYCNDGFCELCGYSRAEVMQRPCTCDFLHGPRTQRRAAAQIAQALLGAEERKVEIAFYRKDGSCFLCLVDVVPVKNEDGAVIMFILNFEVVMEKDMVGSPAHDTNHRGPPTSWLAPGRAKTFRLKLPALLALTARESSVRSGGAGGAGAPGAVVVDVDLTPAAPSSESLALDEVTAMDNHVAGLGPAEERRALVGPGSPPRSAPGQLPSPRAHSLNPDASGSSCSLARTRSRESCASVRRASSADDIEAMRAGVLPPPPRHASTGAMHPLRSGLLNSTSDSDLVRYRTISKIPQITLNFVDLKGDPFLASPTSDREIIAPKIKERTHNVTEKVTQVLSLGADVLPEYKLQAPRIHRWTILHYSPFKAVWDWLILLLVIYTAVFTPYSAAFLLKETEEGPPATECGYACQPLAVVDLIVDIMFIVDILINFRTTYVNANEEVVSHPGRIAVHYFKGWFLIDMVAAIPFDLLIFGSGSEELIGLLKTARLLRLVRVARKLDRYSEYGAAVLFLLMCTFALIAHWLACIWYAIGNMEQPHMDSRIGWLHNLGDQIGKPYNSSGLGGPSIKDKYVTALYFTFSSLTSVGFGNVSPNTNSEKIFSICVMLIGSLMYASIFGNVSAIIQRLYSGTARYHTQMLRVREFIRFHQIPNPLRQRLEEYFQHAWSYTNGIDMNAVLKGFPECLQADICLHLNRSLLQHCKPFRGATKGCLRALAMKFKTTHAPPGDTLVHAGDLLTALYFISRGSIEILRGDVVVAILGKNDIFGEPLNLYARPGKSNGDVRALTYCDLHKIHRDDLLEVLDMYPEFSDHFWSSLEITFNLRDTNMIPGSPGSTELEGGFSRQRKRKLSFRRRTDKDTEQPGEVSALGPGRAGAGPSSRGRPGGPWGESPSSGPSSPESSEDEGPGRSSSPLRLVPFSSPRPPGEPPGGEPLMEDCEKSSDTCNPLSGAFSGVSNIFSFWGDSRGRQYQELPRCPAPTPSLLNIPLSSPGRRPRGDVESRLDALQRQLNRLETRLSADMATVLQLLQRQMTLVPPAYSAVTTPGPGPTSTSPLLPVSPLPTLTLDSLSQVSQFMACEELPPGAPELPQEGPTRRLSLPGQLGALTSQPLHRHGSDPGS

[6] = Half life in rat liver microsomes; assay type: ADME, Microsome
[7] = test system: Platelet; assay: Inhibition of platelet aggregation (unknown origin); assay type: functional, cell-based
[8] = molecular target: Tyrosine-protein kinase ABL1 (Homo sapiens, UniProt P00519); assay: Inhibition of ABL (unknown origin) in presence of ATP
Chain of Tyrosine-protein kinase ABL1 (P00519 whole entry): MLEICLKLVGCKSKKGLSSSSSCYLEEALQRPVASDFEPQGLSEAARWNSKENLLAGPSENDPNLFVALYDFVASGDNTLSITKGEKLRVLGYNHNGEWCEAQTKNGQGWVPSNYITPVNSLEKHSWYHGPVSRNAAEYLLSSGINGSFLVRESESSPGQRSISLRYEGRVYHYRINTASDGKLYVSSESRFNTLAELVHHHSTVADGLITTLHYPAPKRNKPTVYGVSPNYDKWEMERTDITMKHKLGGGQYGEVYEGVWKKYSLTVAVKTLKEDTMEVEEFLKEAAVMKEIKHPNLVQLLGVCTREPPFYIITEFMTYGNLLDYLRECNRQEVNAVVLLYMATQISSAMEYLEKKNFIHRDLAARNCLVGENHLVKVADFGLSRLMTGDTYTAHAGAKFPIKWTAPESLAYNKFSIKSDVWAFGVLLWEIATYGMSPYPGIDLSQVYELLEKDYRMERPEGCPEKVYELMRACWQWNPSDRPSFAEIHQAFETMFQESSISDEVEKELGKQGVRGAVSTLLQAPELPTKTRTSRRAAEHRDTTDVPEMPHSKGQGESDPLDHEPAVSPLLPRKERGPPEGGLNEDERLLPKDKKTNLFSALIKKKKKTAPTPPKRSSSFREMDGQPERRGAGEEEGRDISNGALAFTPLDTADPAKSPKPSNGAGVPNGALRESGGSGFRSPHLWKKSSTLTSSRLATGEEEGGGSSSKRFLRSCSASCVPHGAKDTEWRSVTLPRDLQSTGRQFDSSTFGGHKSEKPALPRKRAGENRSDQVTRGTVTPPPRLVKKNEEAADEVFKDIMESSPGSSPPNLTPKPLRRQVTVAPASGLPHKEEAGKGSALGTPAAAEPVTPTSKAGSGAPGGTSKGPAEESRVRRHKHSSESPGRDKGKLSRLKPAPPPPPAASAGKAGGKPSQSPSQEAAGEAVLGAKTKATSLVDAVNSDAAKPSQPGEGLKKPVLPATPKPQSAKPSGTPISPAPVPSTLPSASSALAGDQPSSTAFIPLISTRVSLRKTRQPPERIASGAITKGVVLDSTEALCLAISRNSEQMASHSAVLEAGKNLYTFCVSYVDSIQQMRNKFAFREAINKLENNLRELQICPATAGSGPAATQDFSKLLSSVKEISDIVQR

[9] = Cmax in Sprague-Dawley rat at 1 mg/kg, iv and 5 mg/kg, po; assay type: ADME, organism-based; settings: in vivo
[10] = Half life in Sprague-Dawley rat at 1 mg/kg, iv and 5 mg/kg, po; assay type: ADME, organism-based; settings: in vivo
[11] = Volume of distribution at steady state in Sprague-Dawley rat at 1 mg/kg, iv and 5 mg/kg, po; assay type: ADME, organism-based; settings: in vivo, read-out: Vdss
[12] = Oral bioavailability in Sprague-Dawley rat at 5 mg/kg; assay type: ADME, organism-based; settings: in vivo
[13] = Clearance in Sprague-Dawley rat at 1 mg/kg, iv and 5 mg/kg, po; assay type: ADME, organism-based; settings: in vivo
[14] = AUC in Sprague-Dawley rat at 1 mg/kg, iv and 5 mg/kg, po; assay type: ADME, organism-based; settings: plasma
[15] = molecular target: Tyrosine-protein kinase Lck (Homo sapiens, UniProt P06239); assay: Inhibition of LCK (unknown origin) in presence of ATP
Chain of Tyrosine-protein kinase Lck (P06239 whole entry, canonical isoform): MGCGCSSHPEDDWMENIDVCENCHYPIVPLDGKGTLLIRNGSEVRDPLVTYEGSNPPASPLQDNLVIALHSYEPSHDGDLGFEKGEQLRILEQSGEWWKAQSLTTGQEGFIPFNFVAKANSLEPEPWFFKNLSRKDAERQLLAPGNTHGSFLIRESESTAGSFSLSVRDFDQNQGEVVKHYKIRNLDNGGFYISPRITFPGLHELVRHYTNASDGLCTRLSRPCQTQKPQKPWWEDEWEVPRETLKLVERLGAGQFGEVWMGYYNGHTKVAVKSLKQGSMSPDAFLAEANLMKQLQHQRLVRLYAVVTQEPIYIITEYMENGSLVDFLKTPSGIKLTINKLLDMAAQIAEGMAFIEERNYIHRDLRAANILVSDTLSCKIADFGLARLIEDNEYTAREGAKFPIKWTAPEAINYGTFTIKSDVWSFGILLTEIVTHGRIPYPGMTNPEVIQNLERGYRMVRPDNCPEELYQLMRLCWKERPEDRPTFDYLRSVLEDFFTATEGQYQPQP

[16] = molecular target: Casein kinase I isoform delta (Homo sapiens, UniProt P48730); assay: Inhibition of CK1-delta (unknown origin) in presence of ATP
[17] = molecular target: Fibroblast growth factor receptor 1 (Homo sapiens, UniProt P11362); assay: Inhibition of FGFR1 (unknown origin) in presence of ATP
[18] = molecular target: Insulin receptor (Homo sapiens, UniProt P06213); assay: Inhibition of INSR (unknown origin) in presence of ATP
[19] = molecular target: RAC-alpha serine/threonine-protein kinase (Homo sapiens, UniProt P31749); assay: Inhibition of AKT1 (unknown origin) in presence of ATP
[20] = molecular target: Dual specificity protein kinase CLK1 (Homo sapiens, UniProt P49759); assay: Inhibition of CLK1 (unknown origin) in presence of ATP
[21] = molecular target: Mitogen-activated protein kinase kinase kinase 9 (Homo sapiens, UniProt P80192); assay: Inhibition of MAP3K9 (unknown origin) in presence of ATP
Chain of Mitogen-activated protein kinase kinase kinase 9 (P80192 whole entry): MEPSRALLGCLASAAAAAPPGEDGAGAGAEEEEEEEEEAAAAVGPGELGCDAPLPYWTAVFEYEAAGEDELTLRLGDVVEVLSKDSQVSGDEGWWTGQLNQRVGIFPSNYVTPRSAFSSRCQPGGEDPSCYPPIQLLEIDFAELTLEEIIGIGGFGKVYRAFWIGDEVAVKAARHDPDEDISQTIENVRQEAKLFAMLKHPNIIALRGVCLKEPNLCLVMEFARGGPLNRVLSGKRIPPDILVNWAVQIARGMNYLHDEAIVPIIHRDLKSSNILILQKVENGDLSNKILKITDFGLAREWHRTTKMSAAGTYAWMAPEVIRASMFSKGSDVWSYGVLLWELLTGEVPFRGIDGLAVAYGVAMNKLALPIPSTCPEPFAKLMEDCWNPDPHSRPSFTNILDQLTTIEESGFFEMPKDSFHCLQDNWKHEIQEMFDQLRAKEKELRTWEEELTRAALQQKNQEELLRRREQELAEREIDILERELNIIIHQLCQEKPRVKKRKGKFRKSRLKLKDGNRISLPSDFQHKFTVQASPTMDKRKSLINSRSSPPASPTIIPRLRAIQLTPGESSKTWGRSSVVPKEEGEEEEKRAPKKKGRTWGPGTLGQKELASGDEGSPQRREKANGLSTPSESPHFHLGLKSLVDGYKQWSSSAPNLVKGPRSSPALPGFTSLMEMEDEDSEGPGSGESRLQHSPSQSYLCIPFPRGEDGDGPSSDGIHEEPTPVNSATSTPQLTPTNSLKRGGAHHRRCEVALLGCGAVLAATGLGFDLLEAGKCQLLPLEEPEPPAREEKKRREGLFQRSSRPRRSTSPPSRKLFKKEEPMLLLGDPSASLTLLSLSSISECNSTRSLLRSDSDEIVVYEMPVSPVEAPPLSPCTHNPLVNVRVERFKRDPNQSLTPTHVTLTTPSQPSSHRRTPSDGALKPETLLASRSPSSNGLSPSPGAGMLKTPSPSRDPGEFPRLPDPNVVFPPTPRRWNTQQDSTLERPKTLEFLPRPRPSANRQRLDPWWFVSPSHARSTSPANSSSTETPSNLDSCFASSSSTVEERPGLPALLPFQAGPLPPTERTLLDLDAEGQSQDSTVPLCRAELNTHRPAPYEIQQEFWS

[22] = molecular target: Mitogen-activated protein kinase kinase kinase kinase 4 (Homo sapiens, UniProt O95819); assay: Inhibition of MAP4K4 (unknown origin) in presence of ATP
[23] = molecular target: Myosin light chain kinase 2, skeletal/cardiac muscle (Homo sapiens, UniProt Q9H1R3); assay: Inhibition of MYLK2 (unknown origin) in presence of ATP
Chain of Myosin light chain kinase 2, skeletal/cardiac muscle (Q9H1R3 whole entry): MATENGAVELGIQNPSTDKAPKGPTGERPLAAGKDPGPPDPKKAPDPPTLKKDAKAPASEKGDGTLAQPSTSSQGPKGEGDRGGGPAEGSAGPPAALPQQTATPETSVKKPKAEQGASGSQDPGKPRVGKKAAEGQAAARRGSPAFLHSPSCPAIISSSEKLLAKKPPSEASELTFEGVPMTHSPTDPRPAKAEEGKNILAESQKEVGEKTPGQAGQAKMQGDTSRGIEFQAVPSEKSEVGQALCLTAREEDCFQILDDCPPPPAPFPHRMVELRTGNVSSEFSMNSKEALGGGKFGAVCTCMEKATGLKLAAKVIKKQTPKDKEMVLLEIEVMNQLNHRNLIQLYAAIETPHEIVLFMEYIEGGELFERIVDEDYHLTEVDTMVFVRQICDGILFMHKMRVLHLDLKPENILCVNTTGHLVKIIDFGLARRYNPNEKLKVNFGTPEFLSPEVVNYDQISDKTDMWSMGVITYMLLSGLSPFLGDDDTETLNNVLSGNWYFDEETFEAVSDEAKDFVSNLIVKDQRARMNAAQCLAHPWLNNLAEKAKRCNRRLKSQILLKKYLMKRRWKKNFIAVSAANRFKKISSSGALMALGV

[24] = molecular target: Calcium/calmodulin-dependent protein kinase type 1 (Homo sapiens, UniProt Q14012); assay: Inhibition of CAMK1 (unknown origin) in presence of ATP
[25] = molecular target: CYP2D6 (Homo sapiens, UniProt P10635); assay: Inhibition of CYP2D6 (unknown origin) at 3 uM; assay type: ADME
Chain of CYP2D6 (P10635 whole entry): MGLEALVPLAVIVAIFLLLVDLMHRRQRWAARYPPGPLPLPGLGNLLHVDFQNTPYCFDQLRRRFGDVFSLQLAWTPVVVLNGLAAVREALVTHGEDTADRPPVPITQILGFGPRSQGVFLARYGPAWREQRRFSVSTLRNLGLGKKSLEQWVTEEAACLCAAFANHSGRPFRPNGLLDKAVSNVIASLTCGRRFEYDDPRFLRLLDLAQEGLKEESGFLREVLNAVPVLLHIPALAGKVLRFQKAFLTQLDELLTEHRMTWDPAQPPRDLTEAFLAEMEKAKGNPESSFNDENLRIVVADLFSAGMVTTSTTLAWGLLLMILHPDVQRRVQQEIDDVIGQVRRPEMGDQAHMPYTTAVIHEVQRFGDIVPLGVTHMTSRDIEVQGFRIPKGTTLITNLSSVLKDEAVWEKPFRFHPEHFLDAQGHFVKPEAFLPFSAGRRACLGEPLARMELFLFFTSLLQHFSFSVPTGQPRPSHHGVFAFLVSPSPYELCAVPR

Row | half-life [1] [min] | pIC50 [2] | solubility [3] [µM] | Papp [4] [×10⁻⁶ cm/s] | half-life [6] [min] | pIC50 [7] | Compound | inhibition at 10 µM [5] [%] | further results
1 | 37 | 8.52 | 3.5 (≈ 1.64 µg/mL) | 2 |  |  | CC[C@@H](CO)Nc1nc(Nc2cc(Cl)cc(Cl)c2)ncc1C(=O)NC1CCN(C)CC1 | 3.4 | 
2 |  |  | 81.6 (≈ 38.1 µg/mL) | 1.5 | 16 | 4.34 | COc1ccccc1CNc1ncc(C(=O)NCCCN2CCCC2=O)c(NC2CCCC2)n1 | 7 | 
3 |  |  | 3.9 (≈ 1.97 µg/mL) | 0.1 | 4 | 4.55 | O=C(NCCCN1CCCC1=O)c1cnc(NCc2cc(Cl)ccc2Cl)nc1NC1CCCC1 | 23 | 
4 |  |  | 1.3 (≈ 0.66 µg/mL) |  | < 5 | 4.54 | O=C(NCCCN1CCOC1=O)c1cnc(NCc2cc(Cl)ccc2Cl)nc1NC1CCCC1 | 33 | 
5 | 5 | 6.42 | 7.8 (≈ 3.33 µg/mL) | 1.9 |  |  | COc1ccccc1CNc1ncc(C(=O)NCCNC(C)=O)c(NC2CCCC2)n1 | 35 | 
6 | 60 | 5.89 | 12 (≈ 5.25 µg/mL) | 21 | 22 |  | COc1ccccc1CNc1ncc(C(=O)NCCc2nnn[nH]2)c(NC2CCCC2)n1 | 79 | 
7 | 40 | 6.30 | 200 (≈ 88.1 µg/mL) |  |  | 4.62 | COc1ccccc1CNc1ncc(C(=O)NCCCCN(C)C)c(NC2CCCC2)n1 | 28 | 
8 | 34 | 6.28 | 80 (≈ 35.1 µg/mL) | 1.2 | 56 | 5.06 | COc1ccccc1CNc1ncc(C(=O)NC2CCN(C)CC2)c(NC2CCCC2)n1 | 27 | pIC50 [8]: 4.68; Cmax [9]: 74 ng/mL; half-life [10]: 210 min; Vd [11]: 18 L/kg; bioavailability [12]: 41%; clearance [13]: 73 mL/min/kg; AUC [14]: 302 ng·h/mL; pIC50 [15]: 4.82
9 | 14 | 6.57 | 7.8 (≈ 3.72 µg/mL) | 0.02 | 60 | 5.14 | CN1CCC(NC(=O)c2cnc(NCc3cc(Cl)ccc3Cl)nc2NC2CCCC2)CC1 | 47 | pIC50 [8]: 5.50; pIC50 [16]: 5.62; Cmax [9]: 35 ng/mL; half-life [10]: 480 min; Vd [11]: 25 L/kg; bioavailability [12]: 32%; pIC50 [17]: 4.90; clearance [13]: 40 mL/min/kg; pIC50 [18]: 4.73; pIC50 [19]: 4.73; AUC [14]: 680 ng·h/mL; pIC50 [15]: 5.87
10 | 38 | 6.72 | 200 (≈ 98.5 µg/mL) | < 0.1 | 60 | 5.07 | CN1CCC(NC(=O)c2cnc(NCc3cc(Cl)ccc3Cl)nc2NC2CCNCC2)CC1 | > 50 | Cmax [9]: 25 ng/mL; half-life [10]: 12 min; Vd [11]: 0.4 L/kg; bioavailability [12]: 0%; clearance [13]: 40 mL/min/kg
11 | 23 | 7.39 | 89 (≈ 47.6 µg/mL) | 2 | 57 |  | CN1CCC(NC(=O)c2cnc(NCc3cc(Cl)ccc3Cl)nc2NC2CCC(N(C)C)CC2)CC1 (stereo not given) | 1.6 | 
12 | 120 | 8.70 | 200 (≈ 104 µg/mL) | 0.3 | 60 | 5.85 | CN1CCC(NC(=O)c2cnc(Nc3cc(Cl)cc(Cl)c3)nc2NC2CCC(N(C)C)CC2)CC1 (stereo not given) | 6.7 | pIC50 [20]: 5.46; pIC50 [8]: 5.12; pIC50 [21]: 4.91; pIC50 [22]: 6.92; pIC50 [23]: 5.08; pIC50 [24]: 4.71
13 | 35 | 8.05 | 40 (≈ 19.2 µg/mL) | < 0.1 |  |  | CN1CCC(NC(=O)c2cnc(Nc3cc(Cl)cc(Cl)c3)nc2NC2CCOCC2)CC1 |  | 
14 | 41 | 8.22 | 2.3 (≈ 1.16 µg/mL) | 0.2 |  |  | CN1CCC(NC(=O)c2cnc(Nc3cc(Cl)cc(Cl)c3)nc2N[C@H]2CCCCNC2=O)CC1 | 4 | 
15 | 74 | 8.00 | 40 (≈ 19.3 µg/mL) | 1.4 | 60 | 5.02 | CN1CCC(NC(=O)c2cnc(Nc3cc(Cl)cc(Cl)c3)nc2N[C@@H]2COC[C@H]2O)CC1 | 0.98 | pIC50 [20]: 4.95; pIC50 [16]: 5.35; half-life [10]: 780 min; Vd [11]: 2.7 L/kg; pIC50 [21]: 4.87; bioavailability [12]: 0%; pIC50 [22]: 5.61; clearance [13]: 55 mL/min/kg; pIC50 [23]: 4.60; pIC50 [15]: 5.43
16 | 21 | 7.04 | 5.2 (≈ 2.18 µg/mL) | 0.2 | 3 |  | Cc1cc(-c2cnc(Nc3cc(Cl)cc(Cl)c3)nc2NC2CCNCC2)on1 | 1.3 | inhibition at 3 µM [25]: 81%
17 | 120 | 7.36 | 200 (≈ 83.7 µg/mL) | 1 | 31 |  | O[C@@H]1COC[C@H]1Nc1nc(Nc2cc(Cl)cc(Cl)c2)ncc1-c1cccnc1 | 1.5 | inhibition at 3 µM [25]: 88%
18 | 48 | 6.82 | 200 (≈ 87.1 µg/mL) | < 0.01 | 60 |  | O[C@@H]1COC[C@H]1Nc1nc(Nc2cc(Cl)cc(Cl)c2)ncc1-c1ccc(F)cc1 | 2.7 | inhibition at 3 µM [25]: 24%
19 | 30 | 7.82 | 5.2 (≈ 2.18 µg/mL) | 0.3 | 31 |  | O[C@@H]1COC[C@H]1Nc1nc(Nc2cc(Cl)cc(Cl)c2)ncc1Br | > 100 | inhibition at 3 µM [25]: 1%
20 | 11 | 6.80 | 7.8 (≈ 3.12 µg/mL) | 0.9 |  | 4.34 | COc1ccccc1CNc1ncc(C(=O)NCCCO)c(NC2CCCC2)n1 | 35 | 
